The values that follow come from PMC3745465 (PLoS ONE, 2013).

Like-named read-outs stand apart in the source and are kept apart here.

In data set [1] the test system is apical uptake transporter (AT). Conditions: MDCK-MDR1-NKI; fitted.
Data set [2] has as its target T1, P-gp (Homo sapiens, UniProt P08183). The note with it: MDCK-MDR1-NKI; fitted consensus value.
On the set-up of data set [3]: method as in earlier work. The note with it: ref 18 19 20, cited from earlier work.
The nature of the next data set: in vitro. Conditions: dog.
Data set [4] has as its system basolateral digoxin uptake transporter. The note with it: MDCK-MDR1-NIH; 10 µM digoxin B>A, 1 hr; Trel = 0.6; listed as KCZ.
Data set [5] shares this test system. The note with it: Caco-2; 10 µM digoxin B>A, 1 hr; Trel = 0.2.
Data set [6] has the same test system. The note with it: CPT-B2; 10 µM digoxin B>A, 1 hr; Trel = 0.3.
For data set [7] the following is noted: mol drug per L lipid / mol drug per L aqueous buffer; 10 µM drug; 37°C.
The target in data set [8] is T1, P-gp. The data set is described as follows: cell-based.
In data set [9] the test system is MDCK-MDR1-NKI confluent cell monolayers. The note with it: nicardipine up to 100 µM; data not shown.
[10] abbreviates: MDCK-MDR1, with GF120918 2 µM, both chambers, Passive Permeability Coefficient at steady-state PAB, A>B, +GF120918.
Setting [11] is: MDCK-MDR1, with GF120918 2 µM, both chambers, Passive Permeability Coefficient at steady-state PBA, B>A, +GF120918.
Setting [12] is: MDCK-MDR1, with GF120918 2 µM, both chambers, passive permeability, direction not given.

T1 sequence (P08183 whole entry): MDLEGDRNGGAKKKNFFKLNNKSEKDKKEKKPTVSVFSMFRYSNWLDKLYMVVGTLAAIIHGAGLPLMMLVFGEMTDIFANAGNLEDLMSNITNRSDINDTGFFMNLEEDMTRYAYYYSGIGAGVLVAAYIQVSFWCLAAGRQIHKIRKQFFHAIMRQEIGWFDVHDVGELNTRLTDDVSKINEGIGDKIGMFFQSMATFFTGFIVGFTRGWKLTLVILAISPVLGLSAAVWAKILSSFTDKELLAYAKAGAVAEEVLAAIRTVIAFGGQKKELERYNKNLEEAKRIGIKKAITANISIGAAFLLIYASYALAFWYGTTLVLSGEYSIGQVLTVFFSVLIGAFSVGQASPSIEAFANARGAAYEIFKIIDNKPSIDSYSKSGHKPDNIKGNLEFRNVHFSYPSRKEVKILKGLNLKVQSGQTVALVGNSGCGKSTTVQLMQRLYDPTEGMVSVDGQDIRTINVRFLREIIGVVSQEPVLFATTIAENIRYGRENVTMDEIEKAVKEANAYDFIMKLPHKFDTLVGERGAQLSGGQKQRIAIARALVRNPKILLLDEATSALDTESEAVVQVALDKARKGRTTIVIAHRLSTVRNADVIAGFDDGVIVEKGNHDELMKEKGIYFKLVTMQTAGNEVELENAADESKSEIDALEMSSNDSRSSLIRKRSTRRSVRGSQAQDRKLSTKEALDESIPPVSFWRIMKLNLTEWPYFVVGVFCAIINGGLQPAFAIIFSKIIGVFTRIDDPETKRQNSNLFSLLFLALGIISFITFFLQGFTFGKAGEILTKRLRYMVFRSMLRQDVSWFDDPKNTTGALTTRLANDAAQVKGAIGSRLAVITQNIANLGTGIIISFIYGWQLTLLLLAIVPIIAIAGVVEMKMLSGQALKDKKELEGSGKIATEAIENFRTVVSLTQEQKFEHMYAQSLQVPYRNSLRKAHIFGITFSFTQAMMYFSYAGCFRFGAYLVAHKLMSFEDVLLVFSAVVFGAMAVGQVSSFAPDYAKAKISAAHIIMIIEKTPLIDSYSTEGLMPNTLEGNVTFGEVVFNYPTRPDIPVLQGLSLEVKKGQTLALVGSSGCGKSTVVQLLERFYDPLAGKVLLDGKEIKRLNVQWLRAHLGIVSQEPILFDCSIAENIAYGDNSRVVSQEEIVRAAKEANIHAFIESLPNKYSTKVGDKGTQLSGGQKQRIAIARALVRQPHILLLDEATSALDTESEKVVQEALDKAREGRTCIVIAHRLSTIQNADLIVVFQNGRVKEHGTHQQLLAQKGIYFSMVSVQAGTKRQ

`CC(C)CN(C[C@@H](O)[C@H](Cc1ccccc1)NC(=O)O[C@H]1CCOC1)S(=O)(=O)c1ccc(N)cc1` [Amprenavir]: in [1], the “Other Transporters kA, 1st order clearance through apical uptake transporter” value (shortened to “Other Transporters kA”) was 350±30 0 s^−1.

Regarding `C[C@H]1O[C@@H](O[C@H]2[C@@H](O)C[C@H](O[C@H]3[C@@H](O)C[C@H](O[C@H]4CC[C@@]5(C)[C@H](CC[C@@H]6[C@@H]5C[C@@H](O)[C@]5(C)[C@@H](C7=CC(=O)OC7)CC[C@]65O)C4)O[C@@H]3C)O[C@@H]2C)C[C@H](O)[C@@H]1O` [Digoxin], at P-gp [2], the “Dissociation from P-gp into Apical Bilayer kr” value was “(3±1)×10^+4 s^−1”. Moreover, on P-gp [2], the “Efflux from P-gp into Apical Chamber k2” value is 3 ± 1 s⁻¹. The “Other Transporters kA” value in data set [1] came to 40 ± 20 s⁻¹. Also, the “aggregating compound or not” value in [3] (enzyme inhibition studies) was “not to be aggregating compounds”. For the same compound, the Papp in the data set “in vitro” (setting [10]) was 4 ± 1 ×10⁻⁶ cm/s; in the data set “in vitro” (setting [11]), 5 ± 1 ×10⁻⁶ cm/s; in “in vitro” (setting [12]) it was under 10 ×10⁻⁶ cm/s.

Turning to `CC(=O)N1CCN(c2ccc(OCC3COC(Cn4ccnc4)(c4ccc(Cl)cc4Cl)O3)cc2)CC1` (stereo not drawn) [Ketoconazole], the “Other Transporters kA” value in data set [1] is recorded as 730±70 0 s^−1. For the same compound, the “KQB, effective association constant of inhibitor to basolateral digoxin uptake transporter” value in [4] was “(4±2)×10^5 M^−1”; in [5], “(2±1)×10^6 M^−1”; in data set [6], “(4±2)×10^6 M^−1”. Moreover, the “aggregating compound or not” value in [3] (enzyme inhibition studies) is given as “not to be aggregating compounds”.

In the case of `CN(C)C(=O)C(CCN1CCC(O)(c2ccc(Cl)cc2)CC1)(c1ccccc1)c1ccccc1` [Loperamide], in [7], the “Molar partition coefficient, Apical Outer Leaflet PC/SM/Chol (1∶1∶1) (mols), KAO” value is listed as 300±50; the “Molar partition coefficient, Basolateral Outer Leaflet PC/Chol (2∶1) (mols), KBO” value is 450±50; the “Molar partition coefficient, Plasma Cytosolic Leaflet PE/PS/Chol (1∶1∶1) (mols), KPC” value is 1500±250. Besides, at P-gp [2], the “Dissociation from P-gp into Apical Bilayer kr” value is listed as “(2±1)×10^+4 s^−1” and the “Efflux from P-gp into Apical Chamber k2” value was 0.4 ± 0.08 s⁻¹. The apparent permeability (Papp) in the data set “in vitro” (MDCK-MDR1, Passive Permeability Coefficient at steady-state PAB, A>B, +GF120918) is 32 ± 7 ×10⁻⁶ cm/s. In “in vitro” (MDCK-MDR1, Passive Permeability Coefficient at steady-state PBA, B>A, +GF120918), this compound showed a Papp of 32 ± 9 ×10⁻⁶ cm/s. This compound registered a Papp in the data set “in vitro” (MDCK-MDR1, passive permeability, direction not given) of about 32 ×10⁻⁶ cm/s. The compound further had a Kd at P-gp [8] of 200 µM.

As for `C=C[C@H]1C[N@@]2CC[C@H]1C[C@@H]2[C@@H](O)c1ccnc2ccc(OC)cc12` [Quinidine], the “Dissociation from P-gp into Apical Bilayer kr” value on P-gp [2] is “(4±2)×10^+3 s^−1”. At P-gp [2], the “Efflux from P-gp into Apical Chamber k2” value stood at 3 ± 0.4 s⁻¹. The Papp in “in vitro” (setting [10]) and in the data set “in vitro” (setting [11]) was 67 ± 5 ×10⁻⁶ cm/s in each case.

Turning to `CC[C@]1(O)C[C@@H]2CN(CCc3c([nH]c4ccccc34)[C@@](C(=O)OC)(c3cc4c(cc3OC)N(C)[C@H]3[C@@](O)(C(=O)OC)[C@H](OC(C)=O)[C@]5(CC)C=CCN6CC[C@]43[C@@H]65)C2)C1` [Vinblastine], in [7], the “Molar partition coefficient, Apical Outer Leaflet PC/SM/Chol (1∶1∶1) (mols), KAO” value came out at 200±3; the “Molar partition coefficient, Basolateral Outer Leaflet PC/Chol (2∶1) (mols), KBO” value worked out at 200±20; the “Molar partition coefficient, Plasma Cytosolic Leaflet PE/PS/Chol (1∶1∶1) (mols), KPC” value is listed as 200±50. On P-gp [2], the “Dissociation from P-gp into Apical Bilayer kr” value is recorded as “(5±2.5)×10^+4 s^−1” and the “Efflux from P-gp into Apical Chamber k2” value worked out at 3 ± 0.5 s⁻¹. Also, in data set [1], the “Other Transporters kA” value was determined as 0 s⁻¹. Also, the apparent permeability coefficient (Papp) in “in vitro” (setting [10]) was 5.5 ± 2 ×10⁻⁶ cm/s. Besides, the Papp in “in vitro” (setting [11]) is 9 ± 1 ×10⁻⁶ cm/s. This compound also came in with an apparent permeability (Papp) in “in vitro” (setting [12]) of under 10 ×10⁻⁶ cm/s.

In the case of `COC(=O)C1=C(C)NC(C)=C(C(=O)OCCN(C)Cc2ccccc2)C1c1cccc([N+](=O)[O-])c1` (stereo not drawn) [nicardipine], in [9], the “PC plateau (large inhibitor concentration plateau) of digoxin transport inhibition” value is on record as “significantly above zero” and the “shape of inhibition curve of digoxin transport” value is “sigmoidal”. In addition, the “concentration above which large aggregates are made” value in [3] (enzyme inhibition studies) is recorded as 30–40 µm. The “concentration at which colloidal aggregates form” value in [3] is reported as “about 30 µM”.

As a reminder, the Papp is the rate of passage across a membrane or cell layer, normalised by area and donor concentration. For orientation: Kd means the concentration at which binding is half-saturated. Lower therefore signals a tighter complex.
